Results from US7851443B2, “Combination comprising combretastatin and anticancer agents” (Aventis Pharma SA, priority 2005, dated 2010).

Tests used:
[1] = system: MA13/C murine mammary adenocarcinoma tumor; test: Antitumor effect on advanced MA13/C murine mammary adenocarcinoma grafted subcutaneously in mice; format: in vivo, female C3H/HeN mice
Experimental: This efficacy can be quantified, for example by the log10 cell kill, which is determined by the following formula: log10 cell kill=T-C (days)/3.32×Td in which T-C represents the delay in tumor growth, which is the average time, in days, taken by the tumors of the treated group (T) to reach a predetermined value (1 g for example) and for the tumors of the control group (C) to reach the same value, and Td represents the time, in days, necessary for the volume of the tumors in the control group to double. During the exponential phase of tumor growth (T. H. Corbett et al., Cancer, 40, 2660.2680 (1977); F. M. Schabel et al., Cancer Drug Development, Part B, Methods in Cancer Research, 17, 3-51, New York, Academic Press Inc. (1979)). A product is considered to be active if the log10 cell kill is greater than or equal to 0.7.
The efficacy of the combinations of solid tumors can be determined experimentally in the following way:
(§1) The animals subjected to the experiment are female C3H/HeN mice which are bilaterally grafted subcutaneously with 30 to 60 mg of a fragment of MA13/C murine mammary adenocarcinoma tumor at day 0. In the case of an early tumor treatment, the implanted animals are distributed randomly in various groups which are or are not (controls) intended to receive the treatment(s). […] Generally, the chemotherapy begins from 3 to 22 days after the graft, according to the type of tumor and the desired tumor size. The animals are observed and weighed every day. A dose which induces a weight loss of 20% or more at the lowest point (average of the group) or a mortality of 10% or more is considered to be toxic. The tumoral activity is evaluated at the highest nontoxic dose.
The tumors are measured 2 or 3 times a week until the tumor reaches approximately 2 g or until the animal dies, if this occurs before the tumor reaches 2 g. The animals are autopsied when they are sacrificed.
The antitumor activity is determined in accordance with various recorded parameters, such as the dose (mg/kg), the method of administration, the administration time, the toxicity and the log cell kill, which depends on the delay in tumor growth and also on the tumor doubling time.

[2] = Toxicity (mortality, weight loss) in tumor-bearing mice; format: in vivo, female C3H/HeN mice
Experimental: as §1

[3] = VEGF Trap SC 10.0 mg/kg per administration, days 21, 25, total dose 20.0 mg/kg
[4] = VEGF Trap SC 25.0 mg/kg per administration, days 21, 25, total dose 50.0 mg/kg
[5] = VEGF Trap SC 40.0 mg/kg per administration, days 21, 25, total dose 80.0 mg/kg
[6] = Formula (IIa) IV 22.3 mg/kg per administration, days 21, 25, total dose 44.6 mg/kg
[7] = Formula (IIa) IV 36.0 mg/kg per administration, days 21, 25, total dose 72.0 mg/kg
[8] = Formula (IIa) IV 58.0 mg/kg per administration, days 21, 25, total dose 116.0 mg/kg
[9] = Formula (IIa) IV 93.5 mg/kg per administration, days 21, 25, total dose 187.0 mg/kg

Q: Which results are given for “VEGF Trap: fusion protein: VEGFR1 signal sequence, Ig domain D2 of VEGFR1, Ig domain D3 of VEGFR2, IgG1 Fc domain”?
A: Comments [1, 3]: Inactive; Log cell kill [1, 3]: 0.1; Regression Complete [1, 3]: 0/5; Regression Partial [1, 3]: 0/5; T-C [1, 3]: 0.4 days; Time to reach tumor size of 1000 mg (median) [1, 3]: 24.2 days; Comments [1, 4]: Inactive; Log cell kill [1, 4]: 0.4; Regression Complete [1, 4]: 0/5; Regression Partial [1, 4]: 0/5; T-C [1, 4]: 2.8 days; Time to reach tumor size of 1000 mg (median) [1, 4]: 26.6 days; Log cell kill [1, 5]: 0.1; Regression Complete [1, 5]: 0/5; Regression Partial [1, 5]: 0/5; T-C [1, 5]: 0.8 days; Time to reach tumor size of 1000 mg (median) [1, 5]: 24.6 days; Comments ([1]; VEGF Trap SC 40.0 mg/kg per administration, days 21, 25, total dose 80.0 mg/kg (MAD)): inactive; Average weight loss as % per mouse at the lowest point (day of the lowest point) [2, 3]: 0.4 (23) %; Mortality related to the agent (day of death) [2, 3]: 0/5; Average weight loss as % per mouse at the lowest point (day of the lowest point) [2, 4]: 1.8 (23) %; Mortality related to the agent (day of death) [2, 4]: 0/5; Average weight loss as % per mouse at the lowest point (day of the lowest point) [2, 5]: 1.3 (23) %; Mortality related to the agent (day of death) [2, 5]: 0/5

Q: Which results are given for `COc1ccc(/C=C\c2cc(OC)c(OC)c(OC)c2)cc1NC(=O)C(N)CO` (stereo not shown) [Formula (IIa)]?
A: Comments [1, 6]: Inactive; Log cell kill [1, 6]: 0.4; Regression Complete [1, 6]: 0/5; Regression Partial [1, 6]: 0/5; T-C [1, 6]: 3.4 days; Time to reach tumor size of 1000 mg (median) [1, 6]: 27.2 days; Comments [1, 7]: Inactive; Log cell kill [1, 7]: 0.5; Regression Complete [1, 7]: 0/5; Regression Partial [1, 7]: 0/5; T-C [1, 7]: 4.1 days; Time to reach tumor size of 1000 mg (median) [1, 7]: 27.9 days; Comments [1, 8]: inactive; Log cell kill [1, 8]: 0.6; Regression Complete [1, 8]: 0/5; Regression Partial [1, 8]: 0/5; T-C [1, 8]: 5.1 days; Time to reach tumor size of 1000 mg (median) [1, 8]: 28.9 days; Average weight loss as % per mouse at the lowest point (day of the lowest point) [2, 6]: 0.6 (22) %; Mortality related to the agent (day of death) [2, 6]: 0/5; Average weight loss as % per mouse at the lowest point (day of the lowest point) [2, 7]: 2.1 (22) %; Mortality related to the agent (day of death) [2, 7]: 0/5; Average weight loss as % per mouse at the lowest point (day of the lowest point) [2, 8]: 3.8 (22) %; Comments (dose level) [2, 8]: HNTD; Mortality related to the agent (day of death) [2, 8]: 0/5; Average weight loss as % per mouse at the lowest point (day of the lowest point) [2, 9]: 7.4 (26) %; Comments [2, 9]: Toxic; Mortality related to the agent (day of death) [2, 9]: 1/5 (23)
